Results taken from patent US20250326795A1, “USE OF D-ENANTIOMERIC PEPTIDE LIGANDS OF MONOMERIC TAU FOR THE THERAPY OF VARIOUS TAUOPATHIES” (PRIAVOID GMBH, priority 2021, published 2025).
Where two headings read alike, the source gives them in different places. Where a SMILES comes first, the peptide text is derived from it. [ ]: non-standard residue; d: D form.

Legend:
[1] = molecular target: T1, monomeric full-length tau 441 (Homo sapiens, UniProt P10636); experiment: SPR measurement of peptide binding to tau; conditions: for Kd: SPR T200 Biacore, peptide immobilised on CM5 chip, monomeric tau as analyte, TBS pH 7.4, 0.05% Tween 20, DTT, 1:1 model (FIG. 2b)
T1 construct: SPR measurement of TF2D-5 and TF2D-5a with full-length tau 441
T1 sequence (P10636 1-441 isoform P10636-8): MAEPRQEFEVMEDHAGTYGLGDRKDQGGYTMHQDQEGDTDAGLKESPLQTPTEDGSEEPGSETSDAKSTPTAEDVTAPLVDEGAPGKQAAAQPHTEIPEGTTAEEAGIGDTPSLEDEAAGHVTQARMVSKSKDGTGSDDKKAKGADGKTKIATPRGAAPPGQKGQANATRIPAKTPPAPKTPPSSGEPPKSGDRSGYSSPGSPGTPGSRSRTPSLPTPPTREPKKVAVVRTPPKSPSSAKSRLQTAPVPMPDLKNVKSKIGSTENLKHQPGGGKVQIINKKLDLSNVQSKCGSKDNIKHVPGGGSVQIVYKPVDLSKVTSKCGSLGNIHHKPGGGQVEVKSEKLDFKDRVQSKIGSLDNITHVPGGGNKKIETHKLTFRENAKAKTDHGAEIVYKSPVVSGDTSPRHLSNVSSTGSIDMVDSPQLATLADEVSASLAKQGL
Experimental: SPR measurements of TF2D-5 with the analyte tau. Seven concentrations of tau were prepared for the measurement, with the highest concentration at 100 nM and the lowest concentration at 1.56 nM. The running buffer contained TBS with 0.1% Tween. The Koff was determined to be approximately 6×10-5 s-1.
The tau concentration during the measurement varied from 3.125 nM to 25 nM. […] Tau was used at concentrations from 31.25 nM to 500 nM. SPR measurements of A and B were recorded on a T200 Biacore instrument, the respective peptide was immobilised on a CM5 chip from Cytiva, while monomeric tau served as the analyte. The tests were performed using TBS pH 7.4, 0.05% Tween […] DTT as running buffer. The fit calculation was performed using the internal evaluation software of the T200 Biacore. A 1:1 model was used for both fits.

tau in full-length = molecular target: T2, tau in full-length (Homo sapiens, UniProt P10636); experiment: MST measurement of CF633-labelled peptides with tau in full-length; assay type: binding; conditions: read-out: KD (MST, Boltzmann fit)
T2 construct: MST measurement of TF2D-5, TF2D-5a and CP1 with tau in full-length
T2 sequence (P10636 1-441 isoform P10636-8): as above
Experimental: MST measurement of TF2D-5, TF2D-5a and CP1 with tau in full-length. A) Boltzmann fit of TF2D-5 MST measurements with tau in full-length. TF2D-5 was labelled with CF633. The concentration of TF2D-5 was 500 nM, while the concentration of tau in full-length was between 2.5 μM and 0.2 pM. The measurement was performed in 1×PBS pH 7.4 with 150 mM NaCl. […] B) Boltzmann fit of TF2D-5a MST measurements with tau in full length. TF2D-5a was labelled with CF633. The concentration of TF2D-5a was 62.5 nM, while the concentration of tau in full-length varied between 300 nM and 0.5 nM. The measurement was performed in 0.1 M sodium phosphate buffer pH 7.4 with 75 mM sodium sulphate and 0.05% Tween 20. […] C) Average of the CP1-MST measurements with tau in full length. CP1 consists of the same amino acids as TF2D-5, but with a different distribution of the amino acids. CP1 was labelled with CF633. The concentration of CP1 was 62.5 nM, while the concentration of tau in full-length varied between […] and 0.2 pM. The measurement was performed in 0.1 M sodium phosphate buffer pH 7.4 with 75 mM sodium sulphate and 0.05% Tween 20. […] D) Calculated KDs of the individual peptides to tau in full-length at a glance. All experiments were repeated four times and the average of all measurements was calculated, which in turn was used to calculate the fits (Boltzmann).

tau = tau (Homo sapiens, UniProt P10636); experiment: ThT assay of heparin-induced tau aggregation (with AFM analysis); assay type: biochemical; conditions: 15 μM tau, 8 μM heparin, 20 μM ThT; for effect on tau aggregation (ThT analysis): 15 μM peptide, 37° C., PBS pH 7.4 (FIG. 1)
Sequence of tau (P10636 1-441 isoform P10636-8): as above
Experimental: The effects of TF2D-1 and TF2D-5 on tau aggregation are shown. The ThT assay was performed by incubation of 15 μM tau with 8 μM heparin, 20 μM THT and 15 μM of either of the two peptides TF2D-1 or TF2D-5 at 37° C. in PBS pH 7.4. The sample without addition of the peptide is shown in red. The samples in which TF2D-1 or TF2D-5 was present are shown in green (TF2D-1) and blue (TF2D-5).
Shown are the effects of TF2D-5 on tau aggregation. The ThT assay was performed by incubation of 15 μM tau with 8 μM heparin, 20 μM ThT, 10% DMSO and different concentrations of TF2D-5 at 37° C. pH 7.0. The images next to the graph show the respective AFM measurements of each sample taken after 5 days. […] The image marked with C corresponds to the blue ThT curve without dilution, where TF2D-5 was added after 24 hours. All AFM measurements were performed by drying 1 μl on a mica, followed by two wash steps with 100 μl water and measurement on JPK Nanowizard3 with intermittent contact air and an OMCL AC160TS as cantilever.

[2] = Stability study in different simulated human body fluids; assay type: in vitro ADME; conditions: simulated gastric fluid pH 1, simulated intestinal fluid pH 6.8, human blood plasma, human liver microsomes (FIG. 6)
Experimental: Stability study of TF2D-5 and TF2D-5a in different simulated human body fluids. A) Stability of the peptides in simulated gastric fluid (SGF). The simulated gastric fluid consisted of 2 mg/ml sodium chloride, 3.2 mg/ml pepsin and 80 mM HCl; pH 1. B) Stability of TF2D-5 and TF2D-5a in simulated intestinal fluid (SIF). Simulated intestinal fluid consisted of 6.8 mg/ml potassium dihydrogen phosphate, 10 mg/ml pancreatic powder and 15.4 mM NaOH; pH 6.8. C) Stability of TF2D 5 and TF2D-5a in human blood plasma. Human K3EDTA blood plasma was obtained from BioTrend. D) Stability of TF2D-5 and TF2D-5a in human liver microsomes. Human liver microsomes consisted of 6 mg/ml protein (containing cytochrome P450 (CYP) enzymes), 75 mM sucrose, 1.3 mM NADPH, 3.3 mM D-glucose-6-phosphate, 0.2 u/ml D-glucose-6-phosphate dehydrogenase, 3.3 mM magnesium chloride and 100 mM potassium phosphate pH 7.4.

tauk18 (LM)-YFP cells = experiment: Inhibition of tau aggregation in cells seeded with sonified tau fibrils; assay type: cell-based; conditions: three-day treatment
Experimental: A) TF2D-5a and the D-peptide CP-1, as negative control, were tested for their ability to inhibit the tau aggregation in tauk18 (LM)-YFP cells. The scale bar corresponds to 50 μm and applies to b-d. The significance was calculated using a one-way ANOVA followed by Dunnett's test for multiple comparisons. Three asterisks represent a p-value of less than 0.001 and four asterisks a p-value of less than 0.0001.

| Kd [1] | koff ([1]; SPR, analyte tau 1.56-100 nM, running buffer TBS with 0.1% Tween (FIG. 2a)) | Kd (tau in full-length; 500 nM labelled peptide, tau 2.5 μM to 0.2 pM, 1×PBS pH 7.4 with 150 mM NaCl (FIG. 4A)) | effect on tau aggregation (ThT and AFM analysis) (tau; 10% DMSO, different concentrations of TF2D-5, 37° C., pH 7.0, AFM after 5 days (FIG. 3)) | stability in different body fluids [2] | Kd (tau in full-length; 62.5 nM labelled peptide, tau 300 nM to 0.5 nM, 0.1 M sodium phosphate buffer pH 7.4, 75 mM sodium sulphate, 0.05% Tween 20 (FIG. 4B)) | Compound | effect on tau aggregation (ThT analysis) (tau) | effect on number of cells with tau aggregates (tauk18 (LM)-YFP cells; cells seeded with sonified tau fibrils (FIG. 5)) | concentration at which reduction in number of cells with tau aggregates was significant (tauk18 (LM)-YFP cells; further reduced at 25 μM and 50 μM, one-way ANOVA, Dunnett's test) |
| --- | --- | --- | --- | --- | --- | --- | --- | --- | --- |
| 1.3 nM | ~6e-05 s⁻¹ | 0.308 nM | inhibits tau aggregation | very stable | – | CC[C@@H](C)[C@@H](NC(=O)[C@@H](Cc1c[nH]cn1)NC(=O)CNC(=O)CNC(=O)[C@H]1CCCN1C(=O)[C@H](NC(=O)[C@@H](CCCCN)NC(=O)[C@@H](Cc1ccccc1)NC(=O)[C@@H](CC(C)C)NC(=O)[C@H](NC(=O)[C@@H](CCC(N)=O)NC(=O)[C@@H](Cc1ccc(O)cc1)NC(=O)CNC(=O)CNC(=O)[C@H](N)CC(=O)O)[C@H](C)CC)[C@H](C)CC)C(=O)N[C@H](Cc1c[nH]cn1)C(N)=O [TF2D-5, dggyqilfkipgghih] (H-[dD]GG[dY][dQ][dI][dL][dF][dK][dI][dP]GG[dH][dI][dH]-NH2) | inhibit tau aggregation | – | – |
| 6.1 nM | – | – | – | very stable | 11.7 nM | CC[C@@H](C)[C@@H](NC(=O)[C@@H](Cc1c[nH]cn1)NC(=O)CNC(=O)CNC(=O)[C@H]1CCCN1C(=O)[C@H](NC(=O)[C@@H](CCCCN)NC(=O)[C@@H](Cc1ccccc1)NC(=O)[C@@H](CC(C)C)NC(=O)[C@H](NC(=O)[C@@H](CCC(N)=O)NC(=O)[C@@H](Cc1ccc(O)cc1)NC(=O)CNC(=O)CNC(=O)[C@H](N)CC(=O)O)[C@H](C)CC)[C@H](C)CC)C(=O)N[C@H](Cc1c[nH]cn1)C(=O)N[C@H](CCCNC(=N)N)C(=O)N[C@H](CCCNC(=N)N)C(=O)N[C@H](CCCNC(=N)N)C(=O)N[C@H](CCCNC(=N)N)C(=O)N[C@H](CCCNC(=N)N)C(N)=O [TF2D-5a, dggyqilfkipgghihrrrrr] (H-[dD]GG[dY][dQ][dI][dL][dF][dK][dI][dP]GG[dH][dI][dH][dR][dR][dR][dR][dR]-NH2) | – | concentration-dependent reduction in the number of cells with tau aggregates | 12.5 UM |
| – | – | – | – | – | – | Nemylwhwqypqhlrvg (H-[dN][dE][dM][dY][dL][dW][dH][dW][dQ][dY][dP][dQ][dH][dL][dR][dV]G-NH2; SMILES CSCC[C@@H](NC(=O)[C@@H](CCC(=O)O)NC(=O)[C@H](N)CC(N)=O)C(=O)N[C@H](Cc1ccc(O)cc1)C(=O)N[C@H](CC(C)C)C(=O)N[C@H](Cc1c[nH]c2ccccc12)C(=O)N[C@H](Cc1c[nH]cn1)C(=O)N[C@H](Cc1c[nH]c2ccccc12)C(=O)N[C@H](CCC(N)=O)C(=O)N[C@H](Cc1ccc(O)cc1)C(=O)N1CCC[C@@H]1C(=O)N[C@H](CCC(N)=O)C(=O)N[C@H](Cc1c[nH]cn1)C(=O)N[C@H](CC(C)C)C(=O)N[C@H](CCCNC(=N)N)C(=O)N[C@@H](C(=O)NCC(N)=O)C(C)C) [TF2D-1] | inhibit tau aggregation | – | – |
